In patent US4321381A, “Ergot derivatives” (Farmitalia Carlo Erba S.p.A., priority 1978, dated 1982):

Key:
[1] = test system: spontaneously hypertensive male rats, strain MHS; assay: Anti-hypertensive activity in the spontaneously hypertensive rat (MHS): blood pressure and heart rate at the tail; format: in vivo
Method: 1. Spontaneously Hypertensive Rat (MHS)
Four spontaneously hypertensive male rats, strain MHS, weight 250 to 300 g for each group were used. The animals were treated for four consecutive days. The drugs were administered by gastric gavage while suspended in 5% arabic gum (0.2 ml/100 g body weight), and blood pressure (BP) and heart rate (HR) were measured at the tail by BP Recorder W+W. Blood pressure and heart rate were measured on the first and fourth day of treatment 1 hour before and 1 and 5 hours after drug administration.

normotensive rats = assay: Blood pressure and heart rate in the conscious normotensive rat (NR); format: in vivo; conditions: 5 mg/kg os
Method: Blood pressure recordings have been made in conscious normotensive unrestrained rats weighing approximately 300 g, via a catheter chronically inserted into the left common carotid artery. Implantation of arterial cannula was made under sodium pentobarbital anesthesia (50 mg/kp i.p.) A 1 cm long incision was made through the previously shaved ventral surface of the neck and the tissues overlying the trachea parted by blunt dissection to reveal the carotid artery. The polyethylene catheter used was made with PE 50 tubing, previously filled with saline containing 250 I.U./ml heparin. The tip of the cannula was pushed at least 2 cm inside the vessel toward the heart. The cannula was then firmly tied and passed beneath the skin to emerge from a small incision in the back of the neck. During the post-operative period and before the start of each recording session, the cannula was flushed through daily with saline containing heparin (250 I.U./ml). The experiments were performed two days after surgery. Drugs were administered by gastric gavage.

[2] = Acute toxicity (LD50) in mice; format: in vivo, mouse; conditions: mouse, in vivo; male mice; oral; observed for seven days
Source text: Evaluation of the Toxicity (LD50)
Ten male mice for each group were orally treated with drugs at different dose levels for the determination of lethal dose 50 (LD50).

Row | SMILES | Change in BP, 1 hr after dose, first day ([1]; 5 mg/kg os) [mm Hg] | Change in BP, 5 hrs after dose, first day ([1]; 5 mg/kg os) [mm Hg] | Change in BP, 1 hr after dose, fourth day ([1]; 5 mg/kg os) [mm Hg] | Change in BP, 5 hrs after dose, fourth day ([1]; 5 mg/kg os) [mm Hg] | Change in BP, 1 hr after dose, first day ([1]; 2 mg/kg os) [mm Hg] | Change in HR, 1 hr after dose, first day ([1]; 2 mg/kg os) [b/min] | Change in HR, 5 hr after dose, first day ([1]; 2 mg/kg os) | Change in BP, 5 hrs after dose, first day ([1]; 2 mg/kg os) [mm Hg] | Change in BP, 1 hr after dose, fourth day ([1]; 2 mg/kg os) [mm Hg] | Change in HR, 1 hr after dose, fourth day ([1]; 2 mg/kg os) [b/min] | Change in HR, 5 hr after dose, fourth day ([1]; 2 mg/kg os) | Change in BP, 5 hrs after dose, fourth day ([1]; 2 mg/kg os) [mm Hg] | Change in HR, 1 hr after dose, first day ([1]; 5 mg/kg os) [b/min] | Change in HR, 5 hr after dose, first day ([1]; 5 mg/kg os) | Change in HR, 1 hr after dose, fourth day ([1]; 5 mg/kg os) | Change in HR, 5 hr after dose, fourth day ([1]; 5 mg/kg os) [b/min] | Change in Blood Pressure after Treatment, 30' (normotensive rats) [mm Hg] | Change in heart rate after treatment, 30' (normotensive rats) [b/min] | Change in Blood Pressure after Treatment, 60' (normotensive rats) [mm Hg] | Change in heart rate after treatment, 60' (normotensive rats) [b/min] | also measured
1 | N#CC(CC1CC2c3cccc4[nH]cc(c34)CC2N(CC2CC2)C1)C(N)=O (stereo not drawn) [355/1323, 2-Cyano-3-(6'-methylcyclopropylergoline-8'β)-propionamide] | -15 | -20 | -20 | -30 |  |  |  |  |  |  |  |  |  |  |  |  |  |  |  |  | 
2 | CCNC(=O)C(C#N)CC1CC2c3cccc4[nH]cc(c34)CC2N(CC2CC2)C1 (stereo not drawn) [355/1324, 2-Cyano-3-(6'-methylcyclopropylergoline-8β)-N-ethylpropionamide] | -20 | -40 | -40 | -35 |  |  |  |  |  |  |  |  |  |  |  |  |  |  |  |  | 
3 | CC(C)N1C[C@H](CC(C#N)C(N)=O)C[C@@H]2c3cccc4[nH]cc(c34)C[C@H]21 (stereo partly drawn) [Example 37, 2-Cyano-3-(6'-isopropylergoline-8'β)-propionamide] | -30 | -25 | -45 | -35 |  |  |  |  |  |  |  |  |  |  |  |  |  |  |  |  | 
4 | CCNC(=O)C(C#N)C[C@@H]1C[C@@H]2c3cccc4[nH]cc(c34)C[C@H]2N(C(C)C)C1 (stereo partly drawn) [Example 38, 2-Cyano-3-(6'-isopropylergoline-8'β)-N-ethyl propionamide] | -20 | -10 | -32 | -28 |  |  |  |  |  |  |  |  |  |  |  |  |  |  |  |  | 
5 | CN1C[C@H](CC(C#N)C(=O)NCc2ccccc2)C[C@@H]2c3cccc4[nH]cc(c34)C[C@H]21 (stereo partly drawn) [Example 1131, 2-Cyano-3-(6'-methylergoline-8'β)-N-benzylpropionamide] | -48 | -43 | -17 | -16 | -26 | -20 | +5 b/min | -9 | -22 | -55 | +5 b/min | -25 | -18 | +10 b/min | +18 b/min | -8 | -22 | -20 | -22 | -30 | Change in Blood Pressure after Treatment, 120' (normotensive rats): -23 mm Hg; Change in heart rate after treatment, 120' (normotensive rats): -20 b/min; Change in Blood Pressure after Treatment, 180' (normotensive rats): -20 mm Hg; Change in heart rate after treatment, 180' (normotensive rats): -20 b/min; Change in Blood Pressure after Treatment, 240' (normotensive rats): -19 mm Hg; Change in heart rate after treatment, 240' (normotensive rats): -10 b/min; Change in Blood Pressure after Treatment, 360' (normotensive rats): -10 mm Hg; Change in heart rate after treatment, 360' (normotensive rats): +10 b/min; Change in Blood Pressure after Treatment, 24h (normotensive rats): 0 mm Hg; Change in heart rate after treatment, 24h (normotensive rats): +10 b/min; LD50 at 168 h [2]: > 1000 mg/kg
6 | CN1C[C@H](CC(C#N)C(=O)N2CCCC2)C[C@@H]2c3cccc4[nH]cc(c34)C[C@H]21 (stereo partly drawn) [Example 1133, 2-Cyano-3-(6'-methylergoline-8'β)-N-propionyl-pyrrolidine] | -24 | -9 | -42 | -25 | -20 | -33 | -28 b/min | -11 | -21 | -20 | -3 b/min | -10 | 0 | +13 b/min | -13 b/min | -8 | -15 | -25 | -20 | -45 | Change in Blood Pressure after Treatment, 120' (normotensive rats): -15 mm Hg; Change in heart rate after treatment, 120' (normotensive rats): -40 b/min; Change in Blood Pressure after Treatment, 180' (normotensive rats): -10 mm Hg; Change in heart rate after treatment, 180' (normotensive rats): -40 b/min; Change in Blood Pressure after Treatment, 240' (normotensive rats): -9 mm Hg; Change in heart rate after treatment, 240' (normotensive rats): -10 b/min; Change in Blood Pressure after Treatment, 360' (normotensive rats): 0 mm Hg; Change in heart rate after treatment, 360' (normotensive rats): -5 b/min; Change in Blood Pressure after Treatment, 24h (normotensive rats): +5 mm Hg; Change in heart rate after treatment, 24h (normotensive rats): 0 b/min; LD50 at 168 h [2]: 500 mg/kg
